This note sets out measurements from patent publication US6958342B2, “Polymorphs of N-methyl-N-(3-{3-[2-thienylcarbonyl]-pyrazol-[1,5-α]-pyrimidin-7-yl}phenyl)acetamide and compositions and methods related thereto” (Neurocrine Biosciences, Inc., priority 1999, dated 2005).

Data set [1] can be described thus: Approximate solubility of Form I and Form II in various solvents. It is filed as physicochemical. An excerpt: In addition, the lower melting point polymorph, Form II, also has significant advantages over the polymorphic mixture of Compound 1 as prepared according to known techniques. […] Form II is generally more soluble in polar and protic solvents than is Form I. Enhanced solubility of a compound will generally increase the bioavailability of that compound. When absorption of a drug is dissolution rate limited, use of the more soluble and faster dissolving form improves the rate and extent of bioavailability.

Data set [2] in a line: Physical (polymorphic) stability of the solid form. It is filed as physicochemical. The note with it: stability toward conversion to a different polymorphic form; compared with the polymorphic mixture of Compound 1. The text has this: The polymorph Form I is considered a heat stable form of Compound 1. By “heat stable” or “physically stable” is meant that the Form I is stable toward conversion to the polymorph Form II; although, it may be labile toward degradation to other compounds.
As the higher melting point polymorph, Form I has significant advantages over the polymorphic mixture of Compound 1 prepared according to known techniques. […] This, in turn, enhances the milling and compaction properties of the drug substance.

A word on the Solubility: it is how much of the substance goes into solution per volume. With “N-methyl-N-(3-{3-[2-thienylcarbonyl]-pyrazol-[1,5-α]-pyrimidin-7-yl}phenyl)acetamide [Form I]”, the Solubility in data set [1] (Acetone) is 4842 µg/mL; in data set [1] (Acetonitrile), 6246 µg/mL; in data set [1] (De-ionized water), 8.3 µg/mL; in data set [1] (Diethyl ether), 80 µg/mL; in data set [1] (Ethanol, absolute (100%)), 1426 µg/mL; in data set [1] (Ethyl acetate), 1600 µg/mL. Besides, the Solubility is 41 µg/mL in data set [1] (Hexane); 441 µg/mL in data set [1] (Isopropanol); 1740 µg/mL in data set [1] (Methanol); 3259 µg/mL in data set [1] (Polyethylene Glycol 400, NF); 9964 µg/mL in data set [1] (Tetrahydrofuran); 997 µg/mL in data set [1] (Toluene). Besides, in data set [2], the “Physical stability, in words” value was “superior physical stability”.

On to “N-methyl-N-(3-{3-[2-thienylcarbonyl]-pyrazol-[1,5-α]-pyrimidin-7-yl}phenyl)acetamide [Form II]”, for which the Solubility in data set [1] (Acetone) stood at 6873 µg/mL; in data set [1] (Acetonitrile), 8928 µg/mL; in data set [1] (De-ionized water), 18.8 µg/mL; in data set [1] (Diethyl ether) it was 51 µg/mL; in data set [1] (Ethanol, absolute (100%)), 1722 µg/mL; in data set [1] (Ethyl acetate), 2160 µg/mL. Also, the Solubility in data set [1] (Hexane) was 50 µg/mL; in data set [1] (Isopropanol) it was 457 µg/mL; in data set [1] (Methanol), 1915 µg/mL; in data set [1] (Polyethylene Glycol 400, NF) it was 10100 µg/mL; in data set [1] (Tetrahydrofuran) it was 14740 µg/mL; in data set [1] (Toluene), 645 µg/mL. Moreover, the “Water solubility, in words” value in data set [1] (compared with Form I) is listed as “superior water solubility over Form I”.
